PubChem BioAssay AID256 (DTP/NCI, 2004)
Several values for one entry are separate records, joined by “and”; a condition that tells them apart may be missing. Equal entries are not always repeated. Toxic doses and inconclusive results are not listed. How the source made its calls: active means survival T/C of 150% or more; inactive means T/C below 125% in these data.

Tested on: CD2F1 mice, L1210 leukemia ip, survival T/C
Assay: NCI In Vivo Anticancer Drug Screen. Data for tumor model L1210 Leukemia (intraperitoneal) in CD2F1 (CDF1) mice
Conditions: higher = longer survival
Summary of the method: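 Tumor-bearing mice (transplanted tumor) were split into treated and vehicle control groups, and the measured endpoint of each treated group was divided by that of its vehicle controls.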

[1] = endpoint: mean survival time, dose: 100.0 mg/kg/injection, schedule: Q01DX009 (ip), vehicle: saline with Tween-80
[2] = endpoint: mean survival time, dose: 200.0 mg/kg/injection, schedule: Q01DX009 (ip), vehicle: saline with Tween-80
[3] = endpoint: mean survival time, dose: 400.0 mg/kg/injection, schedule: Q01DX009 (ip), vehicle: saline with Tween-80
[4] = endpoint: mean survival time, dose: 50.0 mg/kg/injection, schedule: Q01DX009 (ip), vehicle: saline with Tween-80
[5] = endpoint: mean survival time, dose: 100.0 mg/kg/injection, schedule: Q01DX001 (ip), vehicle: saline with Tween-80
[6] = endpoint: mean survival time, dose: 100.0 mg/kg/injection, schedule: Q04DX003 (ip), vehicle: saline with Tween-80
[7] = endpoint: mean survival time, dose: 200.0 mg/kg/injection, schedule: Q01DX001 (ip), vehicle: saline with Tween-80
[8] = endpoint: mean survival time, dose: 200.0 mg/kg/injection, schedule: Q04DX003 (ip), vehicle: saline with Tween-80
[9] = endpoint: mean survival time, dose: 400.0 mg/kg/injection, schedule: Q01DX001 (ip), vehicle: saline with Tween-80
[10] = endpoint: mean survival time, dose: 400.0 mg/kg/injection, schedule: Q04DX003 (ip), vehicle: saline with Tween-80
[11] = endpoint: mean survival time, dose: 100.0 mg/kg/injection, schedule: Q01DX001 (ip), vehicle: Klucel (hydroxypropylcellulose) (HPC)
[12] = endpoint: mean survival time, dose: 200.0 mg/kg/injection, schedule: Q01DX001 (ip), vehicle: Klucel (hydroxypropylcellulose) (HPC)
[13] = endpoint: mean survival time, dose: 400.0 mg/kg/injection, schedule: Q01DX001 (ip), vehicle: Klucel (hydroxypropylcellulose) (HPC)
[14] = endpoint: mean survival time, dose: 100.0 mg/kg/injection, schedule: Q01DX001 (ip), vehicle: saline
[15] = endpoint: mean survival time, dose: 200.0 mg/kg/injection, schedule: Q01DX001 (ip), vehicle: saline
[16] = endpoint: mean survival time, dose: 400.0 mg/kg/injection, schedule: Q01DX001 (ip), vehicle: saline
[17] = endpoint: mean survival time, dose: 100.0 mg/kg/injection, schedule: Q04DX003 (ip), vehicle: saline
[18] = endpoint: mean survival time, dose: 200.0 mg/kg/injection, schedule: Q04DX003 (ip), vehicle: saline
[19] = endpoint: mean survival time, dose: 400.0 mg/kg/injection, schedule: Q04DX003 (ip), vehicle: saline

Measured: T/C

[Cl][Pt+2][Cl].[NH-]c1cc(F)ccc1F.[NH-]c1cc(F)ccc1F
inactive: endpoint: mean survival time, dose: 3.13 mg/kg/injection, schedule: Q04DX003 (ip), vehicle: distilled water + Tween-80 112 % of control | endpoint: mean survival time, dose: 6.25 mg/kg/injection, schedule: Q04DX003 (ip), vehicle: distilled water + Tween-80 110 % of control | endpoint: mean survival time, dose: 12.5 mg/kg/injection, schedule: Q04DX003 (ip), vehicle: distilled water + Tween-80 112 % of control | endpoint: mean survival time, dose: 25.0 mg/kg/injection, schedule: Q04DX003 (ip), vehicle: distilled water + Tween-80 120 % of control | endpoint: mean survival time, dose: 50.0 mg/kg/injection, schedule: Q04DX003 (ip), vehicle: distilled water + Tween-80 110 % of control

Nc1nc2cc[nH]c2c(=O)[nH]1
inactive: endpoint: median survival time, dose: 50.0 mg/kg/injection, schedule: Q01DX005 (ip), vehicle: saline with Tween-80 94 % of control | endpoint: median survival time, dose: 100.0 mg/kg/injection, schedule: Q01DX005 (ip), vehicle: saline with Tween-80 97 % of control | endpoint: median survival time, dose: 200.0 mg/kg/injection, schedule: Q01DX005 (ip), vehicle: saline with Tween-80 92 % of control

CCOC(=O)C1SCSCC1=O (stereo not given)
inactive: [1] 101 % of control | [2] 101 % of control | [3] 98 % of control

Cc1[nH]c2ccccc2c1C(c1cc(Cl)cc(Cl)c1O)c1c(C)[nH]c2ccccc12
inactive: endpoint: mean survival time, dose: 25.0 mg/kg/injection, schedule: Q01DX009 (ip), vehicle: saline with Tween-80 88 % of control | [4] 86 % of control | [1] 86 % of control | [2] 86 % of control

O=C(Nc1ccccc1[N+](=O)[O-])c1ccccc1
inactive: [5] 97 % of control | [6] 102 % of control | [7] 100 % of control | [8] 105 % of control | [9] 95 % of control | [10] 97 % of control

Nc1nc(N)c2nc(CN(Cc3ccccc3)c3ccc(C(=O)NC(CCC(=O)O)C(=O)O)cc3)cnc2n1 (stereo not given)
inactive: endpoint: mean survival time, dose: 20.0 mg/kg/injection, schedule: Q01DX009 (ip), vehicle: sodium bicarbonate 109 % of control | endpoint: mean survival time, dose: 40.0 mg/kg/injection, schedule: Q01DX009 (ip), vehicle: sodium bicarbonate 114 % of control | endpoint: mean survival time, dose: 80.0 mg/kg/injection, schedule: Q01DX009 (ip), vehicle: sodium bicarbonate 114 % of control | endpoint: mean survival time, dose: 100.0 mg/kg/injection, schedule: Q01DX001 (ip), vehicle: sodium bicarbonate 94 % of control | endpoint: mean survival time, dose: 200.0 mg/kg/injection, schedule: Q01DX001 (ip), vehicle: sodium bicarbonate 91 % of control | endpoint: mean survival time, dose: 400.0 mg/kg/injection, schedule: Q01DX001 (ip), vehicle: sodium bicarbonate 91 % of control

Nc1ccc(C(=O)Nc2cccc(OCc3nc(N)nc(N)c3-c3ccc(Cl)cc3)c2)cc1
inactive: endpoint: mean survival time, dose: 50.0 mg/kg/injection, schedule: Q01DX001 (ip), vehicle: saline with Tween-80 93 % of control | [5] 93 % of control | [7] 93 % of control

CC(C)(CO)CCCCCCC(C)(C)CO
inactive: [4] 98 % of control | [1] 106 % of control | [2] 106 % of control

COC(=O)C1C(C(=O)OC)C2(C)C(=O)C1(C)C(c1ccccc1)=C2c1ccccc1 (stereo not given)
inactive: endpoint: mean survival time, dose: 100.0 mg/kg/injection, schedule: Q04DX002 (ip), vehicle: saline with Tween-80 101 % of control | endpoint: mean survival time, dose: 200.0 mg/kg/injection, schedule: Q04DX002 (ip), vehicle: saline with Tween-80 90 % of control | endpoint: mean survival time, dose: 400.0 mg/kg/injection, schedule: Q04DX002 (ip), vehicle: saline with Tween-80 90 % of control

Cc1noc(C)c1CC1(c2ccccc2)CCCCC1=O (stereo not given)
inactive: [11] 92 % of control | [12] 92 % of control | [13] 86 % of control

O=C1CCCC/C1=N\Nc1ccccc1
inactive: [14] 91 % of control | [15] 89 % of control | [16] 97 % of control

CCCC(=O)c1ccc(C)cc1
inactive: [6] 97 % of control | [10] 88 % of control

CCCC(O)C(CC)[N+](=O)[O-] (stereo not given)
inactive: [5] 102 % of control | [7] 98 % of control | [9] 94 % of control

Cc1nc(N=C(N)N)nc2ccc(Cl)cc12
inactive: endpoint: mean survival time, dose: 18.8 mg/kg/injection, schedule: Q01DX009 (ip), vehicle: saline 97 % of control

CN(C)N=Nc1ccc(C(N)=O)cc1C(N)=O
inactive: endpoint: mean survival time, dose: 18.75 mg/kg/injection, schedule: Q01DX009 (ip), vehicle: Klucel (hydroxypropylcellulose) (HPC) 115 % of control and 104 % of control | endpoint: mean survival time, dose: 37.5 mg/kg/injection, schedule: Q01DX009 (ip), vehicle: Klucel (hydroxypropylcellulose) (HPC) 122 % of control and 112 % of control | endpoint: mean survival time, dose: 75.0 mg/kg/injection, schedule: Q01DX009 (ip), vehicle: Klucel (hydroxypropylcellulose) (HPC) 123 % of control and 124 % of control

CCCCCC(Br)C(Br)CC(Br)C(Br)CC(Br)C(Br)CCCCC(=O)O (stereo not given)
inactive: [11] 101 % of control | [12] 96 % of control | [13] 107 % of control

Cc1ccc(N=C(C(=Nc2ccc(C)cc2)c2ccccc2)c2ccccc2)cc1
inactive: [2] 101 % of control | [3] 92 % of control

O=[N+]([O-])c1ccc(C2N(Cc3ccc(Cl)cc3)CCN2Cc2ccc(Cl)cc2)cc1
inactive: [5] 92 % of control | [1] 95 % of control | [6] 98 % of control | [7] 96 % of control | [2] 88 % of control | [8] 98 % of control | [9] 93 % of control | [3] 91 % of control | [10] 90 % of control

Cc1nnnn1C12CC3CC(CC(C3)C1)C2
inactive: endpoint: mean survival time, dose: 9.4 mg/kg/injection, schedule: Q01DX009 (ip), vehicle: saline with Tween-80 94 % of control

CC(=O)N(CC(C)C)N=O
inactive: [14] 95 % of control | [17] 102 % of control | [15] 97 % of control | [18] 97 % of control | [16] 89 % of control | [19] 94 % of control

Nc1nc2ccc(CN(C=O)c3ccc(C(=O)NC(CCC(=O)O)C(=O)O)cc3)cc2c(=O)[nH]1 (stereo not given)
inactive: endpoint: mean survival time, dose: 6.25 mg/kg/injection, schedule: Q01DX009 (ip), vehicle: water 94 % of control | endpoint: mean survival time, dose: 12.5 mg/kg/injection, schedule: Q01DX009 (ip), vehicle: water 102 % of control | endpoint: mean survival time, dose: 25.0 mg/kg/injection, schedule: Q01DX009 (ip), vehicle: water 105 % of control | endpoint: mean survival time, dose: 50.0 mg/kg/injection, schedule: Q01DX009 (ip), vehicle: water 107 % of control | endpoint: mean survival time, dose: 100.0 mg/kg/injection, schedule: Q01DX009 (ip), vehicle: water 119 % of control | endpoint: mean survival time, dose: 200.0 mg/kg/injection, schedule: Q01DX009 (ip), vehicle: water 107 % of control | endpoint: mean survival time, dose: 400.0 mg/kg/injection, schedule: Q01DX009 (ip), vehicle: water 100 % of control

O=C(NO)c1ccccc1
inactive: endpoint: mean survival time, dose: 25.0 mg/kg/injection, schedule: Q01DX009 (ip), vehicle: saline 96 % of control | endpoint: mean survival time, dose: 50.0 mg/kg/injection, schedule: Q01DX009 (ip), vehicle: saline 94 % of control | [5] 110 % of control | endpoint: mean survival time, dose: 100.0 mg/kg/injection, schedule: Q01DX009 (ip), vehicle: saline sonified 103 % of control | endpoint: mean survival time, dose: 100.0 mg/kg/injection, schedule: Q01DX009 (ip), vehicle: saline 98 % of control and 109 % of control | [6] 98 % of control | [7] 103 % of control | endpoint: mean survival time, dose: 200.0 mg/kg/injection, schedule: Q01DX009 (ip), vehicle: saline sonified 115 % of control | endpoint: mean survival time, dose: 200.0 mg/kg/injection, schedule: Q01DX009 (ip), vehicle: saline 121 % of control and 102 % of control | [8] 96 % of control | [9] 117 % of control | [10] 116 % of control

CC(=O)Nc1ccc2c(c1)CCC2=O
inactive: [5] 91 % of control | [7] 95 % of control | [9] 98 % of control

CC1CCOC1=O (stereo not given)
inactive: endpoint: mean survival time, dose: 50.0 mg/kg/injection, schedule: Q04DX002 (ip), vehicle: saline 98 % of control | endpoint: mean survival time, dose: 100.0 mg/kg/injection, schedule: Q04DX002 (ip), vehicle: saline 98 % of control | endpoint: mean survival time, dose: 200.0 mg/kg/injection, schedule: Q04DX002 (ip), vehicle: saline 102 % of control

N#CCOc1cccc([N+](=O)[O-])c1
inactive: [6] 103 % of control | [8] 96 % of control

CC(C)(C)Sc1cccnc1 (tested in a mixture with another compound)
inactive: [1] 92 % of control | [2] 93 % of control

COCCNP(=O)(OC(C)C)OC(C)C
inactive: [17] 100 % of control | [18] 97 % of control | [19] 101 % of control

CC(C)S(=O)(=O)/C(Cl)=C(/Cl)C(Cl)=C(Cl)Cl
inactive: [4] 106 % of control
